Read-outs that look alike come from different tables or passages of the source.
Legend:
[1] = test system: SUDHL-1 cells (human anaplastic large T-cell lymphoma cell line); assay: Prevention of β-D-GA-related cytotoxicity by natural nucleosides, SUDHL-1 cells; type: cell-based
Protocol: The prevention of β-D-GA-related cytotoxicity in CEM cells (human T-cell lymphoma) and in the SUDHL-1 cells (human anaplastic large T-cell lymphoma cell line) was studied by adding natural nucleosides. This experiment was initiated by adding 50 μM of natural nucleosides into the media, together with increasing concentration of β-D-GA. CEM cells were seeded at 2500 cells per well and incubated for 4 days (=fast growing cell line with a doubling time of 1.3 days). SUDHL-1 cells were seeded at 10,000 cells/well, and incubated for 3 days (=slow growing cell line, doubling time 3 days). The result of this experiment is plotted in FIG. 4.

[2] = test system: CEM cells; assay: cells; type: cell-based, human; conditions: for % inhibition at 100 μM, CEM Cells: four day incubation, MTT
Protocol: (§1) The cytotoxicity testing as performed herein is a standard technique. Briefly, cells are seeded in 96-well plates at various concentrations (dependent on cell type, duration of assay), typically at 5×10^3 cells per well, in the presence of increasing concentrations of the test compound (0, 1, 3, 10, 33, and 100 μM). After three (Vero cells), or four (CEM cells), or five (PBM cells) day-incubation, cell viability and mitochondrial activity are measured by adding the MTT-dye (Promega), followed by a 8 hours incubation. Afterwards the plates containing the dye are fixed by adding a stop-solution followed by another eight hour incubation. Finally, absorbance is read at 570 nm. Such methodologies are well described and available from the manufacturer (Promega).

[3] = test system: PBM cells; assay: cells; type: cell-based, human; conditions: for % inhibition at 100 μM, PBM cells: five day incubation, MTT
Protocol: as §1

[4] = test system: Vero cells; assay: cells; type: cell-based; conditions: for % inhibition at 100 μM, Vero Cells: three day incubation, MTT
Protocol: as §1

[5] = test system: human malignant T and B cells and various tumor cell lines; assay: Toxicity profile against human malignant T and B cells and various tumor cell lines (MTT, IC50); type: cell-based; conditions: for IC50: MTT assay, 3-5 days
Protocol: as §1, with “Cytotoxicity” for “The cytotoxicity”, “here are” for “herein is a”, “techniques.” for “technique.”, “Depending on the cell-type incubation with test compound can vary in time, but is usually within the range of 3 to 5 days. Cell” for “After three (Vero cells), or four (CEM cells), or five (PBM cells) day-incubation, cell”, “eight” for “a 8”, “hours of” for “hours”
In order to explore the complete potential of this compound, a set of human malignant T and B cells and various tumor cell lines were incubated with […] at varying concentrations, and after the absorbance was read, an IC50 value was calculated. As a control, Ara-C, 5FU, and cyclo-heximide was taken alongside (Table 26).

[6] = test system: Influenza A (H1N1); assay: microbe, parasite or virus in culture; type: cell-based; conditions: Influenza A virus, H1N1, MDCK; Initial Test, CPE Inhibition (Visual)
[7] = test system: Influenza A (H3N2); assay: microbe, parasite or virus in culture; type: cell-based; conditions: Influenza A virus, H3N2, MDCK; Initial Test, CPE Inhibition (Visual)
[8] = test system: Influenza B; assay: microbe, parasite or virus in culture; type: cell-based; conditions: Influenza B virus, MDCK; Initial Test, CPE Inhibition (Visual)
[9] = test system: Respiratory Syncytial Virus A; assay: microbe, parasite or virus in culture; type: cell-based, Respiratory Syncytial Virus strain A2
[10] = test system: Parainfluenza Type 3 Virus; assay: organism not typed; type: cell-based, Parainfluenza type 3 virus strain 14702; conditions: MA104, read-out: EC50, Parainfluenza Type 3 Virus
[11] = test system: Influenza A (H1N1); assay: microbe, parasite or virus in culture; type: cell-based; conditions: Initial Test, Neutral Red
[12] = test system: Influenza A (H3N2); assay: microbe, parasite or virus in culture; type: cell-based; conditions: Influenza A virus, H3N2, MDCK; Initial Test, Neutral Red
[13] = test system: Influenza B; assay: microbe, parasite or virus in culture; type: cell-based; conditions: Influenza B virus, MDCK; Initial Test, Neutral Red
[14] = test system: Respiratory Syncytial Virus A; assay: microbe, parasite or virus in culture; type: cell-based; conditions: Initial Test, Neutral Red
[15] = test system: Parainfluenza Type 3 Virus; assay: organism not typed; type: cell-based; conditions: Initial Test, Neutral Red
[16] = test system: HCV replicon; assay: HCV replicon system in Huh7 cells, replicon RNA by Q-RT-PCR (HCV ΔCt, ΔΔCt); type: cell-based, hepatitis C virus; conditions: Table 24
[17] = test system: rRNA (host RNA polymerase I product); assay: rRNA ΔCt in Huh7 replicon cells (effect on host RNA polymerases); conditions: Table 24, average of n
Description: In a typical setting, a compound might reduce both the host RNA polymerase activity and the replicon-encoded polymerase activity. Therefore, quantification of rRNA (or any other host RNA polymerase I product) or beta-actin mRNA (or any other host RNA polymerase II) and comparison with RNA levels of the no-drug control is a relative measurement of the effect of the test compound on host RNA polymerases.
With the availability of both the HCV ΔCt data and the rRNA ΔCt, a specificity parameter can be introduced. This parameter is obtained by subtracting both ΔCt values from each other.

[18] = CEM (human T-cell lymphoma cell line), MTT assay, incubation 3-5 days, read-out: Toxicity IC50
[19] = PBM (human peripheral blood mononuclear cells), MTT assay, incubation 3-5 days, read-out: Toxicity IC50
[20] = Vero (African green monkey kidney cell line), MTT assay, incubation 3-5 days, read-out: Toxicity IC50
[21] = BL41 (human B-cell lymphoma cell line), read-out: Toxicity IC50
[22] = H9 (human T-cell lymphoblast cell line), read-out: Toxicity IC50
[23] = HEPG2 (human liver carcinoma cell line), read-out: Toxicity IC50
[24] = JY (human B-cell lymphoma cell line, EBV transformed), read-out: Toxicity IC50
[25] = LNCaP (human prostate adenocarcinoma cell line), read-out: Toxicity IC50
[26] = MCF-7 (human breast carcinoma cell line), read-out: Toxicity IC50
[27] = SK-MEL-28 (human melanoma cell line), read-out: Toxicity IC50
[28] = SK-MES-1 (human lung squamous carcinoma cell line), read-out: Toxicity IC50
[29] = SupT1 (human T-cell lymphoblast cell line), read-out: Toxicity IC50
[30] = SUDHL-1 (human anaplastic large T-cell lymphoma cell line), read-out: Toxicity IC50

Nc1ccn([C@H]2C[C@H](O)[C@@H](CO)O2)c(=O)n1 [2′-Deoxycytidine]
prevention of β-D-GA toxicity, in words ([1]; 50 μM natural nucleoside, SUDHL-1 cells, 3 days, FIG. 4): modest preventive activity effect

O=c1[nH]cc(F)c(=O)[nH]1 [5FU]
IC50 [2, 18]: 90.5 µM
IC50 [3, 19]: 13.7 µM
IC50 [4, 20]: 65 µM
IC50 [5, 21]: 24.1 µM
IC50 [5, 22]: 14.2 µM
IC50 [5, 23]: 40.6 µM
IC50 [5, 24]: 7.5 µM
IC50 [5, 25]: 22.1 µM
IC50 [5, 26]: 43.7 µM
IC50 [5, 27]: 11.2 µM
IC50 [5, 28]: 13.1 µM
IC50 [5, 29]: 53.6 µM

Nc1ccn([C@@H]2O[C@H](CO)[C@@H](O)[C@@H]2O)c(=O)n1 [Ara-C, reference compound]
IC50 [2, 18]: 0.6 µM
IC50 [3, 19]: 7 µM
IC50 [4, 20]: 0.8 µM
IC50 [5, 30]: 3.7 µM

C[C@@H]1C[C@@H]([C@H](O)CC2CC(=O)NC(=O)C2)C(=O)[C@@H](C)C1 [cyclo-heximide]
IC50 ([2]; Homo sapiens, CCRF-CEM, read-out: Toxicity IC50): 0.1 µM
IC50 ([3]; Homo sapiens, PBMC, read-out: Toxicity IC50): 2.6 µM
IC50 ([4]; Chlorocebus sabaeus, Vero, read-out: Toxicity IC50): 2.1 µM
IC50 ([5]; Homo sapiens, B-cell, read-out: Toxicity IC50, H9 (human T-cell lymphoblast cell line)): 1 µM
IC50 ([5]; Homo sapiens, B-cell, read-out: Toxicity IC50, JY (human B-cell lymphoma cell line, EBV transformed)): 0.8 µM
IC50 ([5]; Homo sapiens, BL-41, read-out: Toxicity IC50, BL41 (human B-cell lymphoma cell line)): 0.3 µM
IC50 ([5]; Homo sapiens, HepG2, read-out: Toxicity IC50, HEPG2 (human liver carcinoma cell line)): 3.6 µM
IC50 ([5]; Homo sapiens, LNCaP, read-out: Toxicity IC50, LNCaP (human prostate adenocarcinoma cell line)): 2.4 µM
IC50 ([5]; Homo sapiens, MCF7, read-out: Toxicity IC50, MCF-7 (human breast carcinoma cell line)): 1.5 µM
IC50 ([5]; Homo sapiens, SK-MEL-28, read-out: Toxicity IC50, SK-MEL-28 (human melanoma cell line)): 1 µM
IC50 ([5]; Homo sapiens, SK-MES-1, read-out: Toxicity IC50, SK-MES-1 (human lung squamous carcinoma cell line)): 3.4 µM
IC50 ([5]; Homo sapiens, SU-DHL-1, read-out: Toxicity IC50, SUDHL-1 (human anaplastic large T-cell lymphoma cell line)): 0.3 µM
IC50 ([5]; Homo sapiens, SUP-T1, read-out: Toxicity IC50, SupT1 (human T-cell lymphoblast cell line)): 0.6 µM

O=c1[nH]c(=O)n([C@@H]2O[C@H](CO)[C@@H](O)[C@H]2O)cc1O [β-D-CL, 5-hydroxyuridine]
EC50 [6]: > 5 µM
EC50 [7]: > 5 µM
EC50 [8]: > 5 µM
antiviral activity against RSV, in words [9]: potent in-vitro anti-RSV compound
SI (Selectivity Index), RSV ([9]; Initial Test, CPE Inhibition (Visual)): 150
EC50 ([9]; human respiratory syncytial virus, MA104, read-out: EC50, RSV): 0.5 µM
EC50 [10]: 90 µM
EC50 ([11]; Influenza A virus, H1N1, MDCK): 8 µM
SI (Selectivity Index), Influenza A (H1N1) [11]: 1.1
EC50 [12]: > 5 µM
EC50 [13]: > 5 µM
SI (Selectivity Index), RSV [14]: >170
EC50 ([14]; human respiratory syncytial virus, MA104): < 0.5 µM
SI (Selectivity Index), Parainfluenza Type 3 Virus [15]: 1
EC50 ([15]; MA104): 40 µM

Nc1nc(=O)n([C@@H]2C[C@H](CO)[C@@H](O)[C@H]2O)cc1F [β-D-GA]
IC50 [2]: 1.9 µM
cytotoxic effect on CEM cells, in words [2]: selective cytotoxic effect on CEM cells
IC50 [2, 18]: 2.9 µM
IC50 [3]: > 100 µM
% inhibition at 100 μM, PBM cells [3]: 11.3%
IC50 [3, 19]: > 100 µM
IC50 [4]: > 57.4 µM
IC50 [4, 20]: > 100 µM
Ave. ΔΔCt ([16]; HCV RNA ΔCt minus rRNA ΔCt): 3.93
Ave. HCV RNA ΔCt ([16]; HCV replicon in Huh7 cells, average of n): 6.04
Ave. rRNA ΔCt [17]: 2.10
IC50 [5, 21]: < 1 µM
IC50 [5, 22]: 1.4 µM
IC50 [5, 23]: > 100 µM
IC50 [5, 24]: 3 µM
IC50 [5, 25]: 45.7 µM
IC50 [5, 26]: > 100 µM
IC50 [5, 27]: > 100 µM
IC50 [5, 28]: > 100 µM
IC50 [5, 30]: 0.7 µM
IC50 [5, 29]: 0.3 µM
toxicity in tumor cell panel, in words ([5]; human malignant T and B cells vs PBM and non-T or B neoplastic cells): potent toxicity in human malignant T and B cells, but not in human PBM cells and non-T or B neoplastic cells
effectiveness against slow vs fast growing cells, in words ([1]; SUDHL-1 and CEM cells): equally effective against slower growing SUDHL-1 cells and fast growing CEM cells

O=c1[nH]c(=O)n([C@H]2C[C@@H](CO)[C@H](O)[C@@H]2O)cc1F [β-L-GF]
IC50 [2]: > 100 µM
% inhibition at 100 μM, CEM Cells [2]: 35.1%
IC50 [3]: > 100 µM
% inhibition at 100 μM, PBM cells [3]: −70.4%
IC50 [4]: > 100 µM
% inhibition at 100 μM, Vero Cells [4]: 33.8%

Nc1nc(=O)n([C@@H]2CC[C@H](CO)C2)cc1I [β-L-GG]
IC50 [2]: > 100 µM
% inhibition at 100 μM, CEM Cells [2]: 17.3%
IC50 [3]: > 100 µM
% inhibition at 100 μM, PBM cells [3]: −34.6%
IC50 [4]: > 100 µM
% inhibition at 100 μM, Vero Cells [4]: 33.6%

Nc1nc(=O)n([C@H]2C[C@@H](CO)[C@H](O)[C@@H]2O)cc1I [β-L-GH]
IC50 [2]: > 100 µM
% inhibition at 100 μM, CEM Cells [2]: 19.7%
IC50 [3]: > 100 µM
% inhibition at 100 μM, PBM cells [3]: −52.1%
IC50 [4]: > 100 µM
% inhibition at 100 μM, Vero Cells [4]: 27.0%

Nc1nc(=O)n([C@H]2C[C@@H](CO)[C@H](O)[C@@H]2O)cc1Cl [β-L-GI]
IC50 [2]: > 100 µM
% inhibition at 100 μM, CEM Cells [2]: 18.0%
IC50 [3]: > 100 µM
% inhibition at 100 μM, PBM cells [3]: −47.8%
IC50 [4]: > 100 µM
% inhibition at 100 μM, Vero Cells [4]: 31.9%

From patent US10100076B2, “Modified nucleosides for the treatment of viral infections and abnormal cellular proliferation” (priority 2000, dated 2018)
